Results from patent publication US10689354B2, “Aminoazole derivative” (Teijin Pharma Limited, priority 2015, dated 2020).

Experiments:
[1] = molecular target: T1, androgen receptor (AR-LBD) (Rattus norvegicus, UniProt P15207); assay: Evaluation of androgen receptor affinity (PolarScreen Androgen Receptor Competitor Assay Kit, Red; fluorescence polarization); settings: 22° C. for 5 hours, relative to binding rate of 1 μM DHT, read-out: AR affinity (pEC50) (converted)
T1 construct: 5 μL of 2×AR-LBD/Fluoromone AL Red Complex contained in the kit; purchased Invitrogen
T1 sequence (P15207 651-882 limits assumed): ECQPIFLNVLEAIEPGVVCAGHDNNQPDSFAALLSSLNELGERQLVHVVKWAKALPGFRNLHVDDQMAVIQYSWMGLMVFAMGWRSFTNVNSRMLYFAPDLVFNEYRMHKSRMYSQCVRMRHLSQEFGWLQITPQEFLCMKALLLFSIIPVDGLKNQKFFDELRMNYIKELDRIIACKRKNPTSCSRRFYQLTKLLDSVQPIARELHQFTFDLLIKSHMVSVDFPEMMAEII
Procedure, shortened: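 pEC50 values reflect tracer displacement from AR-LBD (Fluoromone AL Red complex) measured by fluorescence polarization after 5 h at 22° C, normalized to 1 μM DHT and fitted with a 4-parameter model.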

[2] = molecular target: T2, human androgen receptor (Homo sapiens, UniProt P10275); assay: Reporter assay of an androgen receptor responsive sequence (luciferase, transiently transfected HEK293 cells); assay type: cell-based; settings: 24 hours incubation, relative to activity of 100 nM DHT, read-out: AR transcriptive activity (pEC50) (converted)
T2 construct: expressed in transfected cells; host or cells: HEK293
T2 sequence (P10275 1-920): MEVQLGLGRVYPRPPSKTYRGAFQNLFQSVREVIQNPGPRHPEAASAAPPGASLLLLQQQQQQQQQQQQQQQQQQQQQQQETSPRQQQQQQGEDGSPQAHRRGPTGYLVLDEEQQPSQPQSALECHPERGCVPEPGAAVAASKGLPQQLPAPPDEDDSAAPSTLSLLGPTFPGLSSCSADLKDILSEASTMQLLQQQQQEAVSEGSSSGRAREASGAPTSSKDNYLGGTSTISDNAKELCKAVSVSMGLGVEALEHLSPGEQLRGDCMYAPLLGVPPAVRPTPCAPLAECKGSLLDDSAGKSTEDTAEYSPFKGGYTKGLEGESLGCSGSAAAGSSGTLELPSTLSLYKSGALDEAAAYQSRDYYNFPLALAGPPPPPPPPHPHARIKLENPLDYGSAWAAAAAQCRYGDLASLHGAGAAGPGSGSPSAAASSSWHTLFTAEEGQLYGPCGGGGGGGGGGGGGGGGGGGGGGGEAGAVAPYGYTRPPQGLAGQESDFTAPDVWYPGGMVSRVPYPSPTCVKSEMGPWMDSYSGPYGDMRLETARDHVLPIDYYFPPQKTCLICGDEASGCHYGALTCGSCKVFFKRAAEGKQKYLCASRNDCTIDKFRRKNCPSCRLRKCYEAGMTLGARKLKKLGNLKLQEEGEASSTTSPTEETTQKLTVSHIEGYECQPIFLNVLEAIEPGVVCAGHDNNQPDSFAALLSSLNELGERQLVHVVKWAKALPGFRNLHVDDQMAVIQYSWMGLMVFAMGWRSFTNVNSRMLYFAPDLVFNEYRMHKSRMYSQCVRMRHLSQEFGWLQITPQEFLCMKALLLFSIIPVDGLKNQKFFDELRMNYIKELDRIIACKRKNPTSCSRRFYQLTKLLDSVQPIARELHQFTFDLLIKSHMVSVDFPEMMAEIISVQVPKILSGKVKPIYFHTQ
Procedure, shortened: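 HEK293 cells transiently transfected for 3 h with ARE-firefly luciferase, full-length human AR and TK-Renilla plasmids, then exposed to compound for 24 h at 37 °C in 5% charcoal-treated FBS/DMEM. Dual-Glo luminescence read; pEC50 from 4-parameter fit relative to 100 nM DHT.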

SMILES | EC50 [1] [nM] | EC50 [2] [nM]
Cc1sc(N(CCc2ccc(Cl)cc2)Cc2ccccc2)nc1C(=O)NS(C)(=O)=O [Example 299, 2-[benzyl-[2-(4-chlorophenyl)ethyl]amino]-5-methyl-N-methylsulfonyl-thiazole-4-carboxamide] | 31.6 | 126
Cc1sc(N(CCc2ccc(C#N)cc2)Cc2ccccc2)nc1C(=O)NS(C)(=O)=O [Example 301, 2-[benzyl-[2-(4-cyanophenyl)ethyl]amino]-5-methyl-N-methylsulfonyl-thiazole-4-carboxamide] | 50.1 | 158
Cc1sc(N(CCc2ccccc2Cl)Cc2ccccc2)nc1C(=O)NS(C)(=O)=O [Example 303, 2-[benzyl-[2-(2-chlorophenyl)ethyl]amino]-5-methyl-N-methylsulfonyl-thiazole-4-carboxamide] | 126 | > 10000
Cc1sc(N(Cc2ccc(Cl)cc2)Cc2csc3cc(C#N)ccc23)nc1C(=O)NS(C)(=O)=O [Example 305, 2-[(4-chlorophenyl)methyl-[(6-cyanobenzothiophen-3-yl)methyl]amino]-5-methyl-N-methylsulfonyl-thiazole-4-carboxamide] | > 2000 | > 10000
Cc1sc(N(CCc2ccc(C#N)cc2)Cc2ccc(Cl)cc2)nc1C(=O)NS(C)(=O)=O [Example 306, 2-[(4-chlorophenyl)methyl-[2-(4-cyanophenyl)ethyl]amino]-5-methyl-N-methylsulfonyl-thiazole-4-carboxamide] | 31.6 | 100
COc1cccc(CCN(Cc2ccccc2)c2nc(C(=O)NS(C)(=O)=O)c(C)s2)c1 [Example 308, 2-[benzyl-[2-(3-methoxyphenyl)ethyl]amino]-5-methyl-N-methylsulfonyl-thiazole-4-carboxamide] | 79.4 | 5010
Cc1sc(N(CCc2cccs2)Cc2ccccc2)nc1C(=O)NS(C)(=O)=O [Example 310, 2-[benzyl-[2-(2-thienyl)ethyl]amino]-5-methyl-N-methylsulfonyl-thiazole-4-carboxamide] | 200 | 2510
Cc1sc(N(CCc2ccsc2)Cc2ccccc2)nc1C(=O)NS(C)(=O)=O [Example 313, 2-[benzyl-[2-(3-thienyl)ethyl]amino]-5-methyl-N-methylsulfonyl-thiazole-4-carboxamide] | 158 | 1000
Cc1sc(N(CCc2ccc(Cl)cc2Cl)Cc2ccccc2)nc1C(=O)NS(C)(=O)=O [Example 315, 2-[benzyl-[2-(2,4-dichlorophenyl)ethyl]amino]-5-methyl-N-methylsulfonyl-thiazole-4-carboxamide] | 79.4 | 158
